Measurements from patent US20030199516A1, “Methods of treating infection by drug resistant bacteria” (Genesoft, Inc., priority 2001, published 2003).
Blank lines part the entries; values can stand above or below the molecule they belong to.

Tests used:
S. aureus ATCC 27660 = assay: NCCLS broth microdilution MIC; type: cell-based, Staphylococcus aureus; settings: Col. A = S. aureus ATCC 27660 (MRSA)
Description: (§1) In vitro antibacterial activity data were collected for the following Gram-positive bacteria: Staphylococcus aureus (ATCC 27660, ATCC 33591 and ATCC 43300, all methicillin resistant strains (MRSA's)); Streptococcus pneumoniae (ATCC 51422, a penicillin resistant strain (PRSP)), Enterococcus faecium (ATCC 51559, and/or a vancomycin resistant strain (VRE)). Additionally, antifungal activity data were collected for Candida albicans (ATCC 38247). Minimal inhibition concentrations (MIC's) were determined using the National Committee for Clinical Laboratory Standards (NCCLS) broth microdilution assay in microtiter plates, as set forth in: (1) the guidelines of the National Committee for Clinical Laboratory Standards (NCCLS) Document M7-A4 (NCCLS, 1997); (2) the guidelines of the National Committee for Clinical Laboratory Standards (NCCLS) Document M11-A4 (NCCLS, 1997); and (3) the guidelines and reference method of the National Committee for Clinical Laboratory Standards (NCCLS) Document M27-T (NCCLS, 1995). For antifungal essays, the method recommended in Murray, PR., 1995 Manual of Clinical Microbiology (ASM Press, Washington, D.C.), was employed.

S. aureus ATCC 33591 = assay: NCCLS broth microdilution MIC; type: cell-based, Staphylococcus aureus; settings: Col. B = S. aureus ATCC 33591 (MRSA)
Description: as §1

[1] = system: Enterococcus faecium ATCC 51559; assay: NCCLS broth microdilution MIC; type: cell-based; settings: Col. D = E. faecium ATCC 51559 (VRE)
Description: as §1

[2] = system: Streptococcus pneumoniae ATCC 51422; assay: NCCLS broth microdilution MIC; type: cell-based; settings: Col. E = S. pneumoniae ATCC 51422 (PRSP)
Description: as §1

[3] = system: Candida albicans ATCC 38247; assay: Antifungal MIC; type: cell-based; settings: Col. F = C. albicans ATCC 38247
Description: as §1

[4] = biological target: target sequence TGACAATTAAT (352 bp fragment, Plasmid C); assay: Quantitative DNase I footprint titration; type: binding; settings: 352 bp C, 22° C., pH 7.0, read-out: Dissociation Constant Kd
Description: (§2) Compounds (1) through (20) according to this invention were screened for their ability to bind to specified DNA target sequences, using DNase I footprinting. Generally, the procedure described in Dervan, WO 98/50582 (1998), was followed.
(§3) Three double stranded circular plasmids A, B, and C were used to prepare double stranded DNA-binding probes containing the target sequences for the DNase I footprint titration experiments. Plasmids A, B, and C had nucleotide sequences given by SEQ ID NO. I, SEQ ID NO. II, and SEQ ID NO. III, respectively.
(§4) The 3′-P32 end-labeled EcoRI/PvuII fragments from each plasmid were prepared by digesting the plasmids with EcoRI and PvuII with simultaneous fill-in using Sequenase v. 2.0, [alpha-P32]-deoxyadenosine-5′-triphosphate, and [alpha-P32]-thymidine-5′-triphosphate, and isolating the cloned fragments by nondenaturing gel electrophoresis. A and G sequencing reactions were carried out as described (See Maxam and Gilbert, Methods Enzymol., 1980, 65, 499-560; Iverson and Dervan, Methods Enzymol., 1987, 15, 7823-7830; Sambrook et al., 1989, Molecular Cloning, 2nd ed., Cold Spring Harbor Laboratory Press: Cold Spring Harbor, N.Y.) Standard methods were used for all DNA manipulations (Sambrook et al., ibid.) The cut sites for EcoRI and PvuII are indicated by bars in the respective maps of Plasmids A, B, and C in FIGS. 5, 6, and 7.
(§5) The 351 base pair dsDNA restriction fragment (SEQ ID NO. IV) of Plasmid A contained the target sequences AAAAAGCAAAAA, AAAAAGACAAAAA, and AAAAAGTACAAAAA. The 310 base pair dsDNA restriction fragment (SEQ ID NO. V) of Plasmid B contained the target sequences AGTACT, AATACT, and ATTACT. The 352 base pair dsDNA restriction fragment (SEQ ID NO. VI) of Plasmid C contained the target sequences TGACAATTAAT, GACAATTAATCA, AATTAATCAT, ACAATTA, and ACAATTAAT. These fragments were used for quantitative DNase I footprinting experiments. Compounds used in the method of this invention bind to at least one of the target sites with a equal to or less than 100 nM, preferably equal to or less than 50 nM, and more preferably equal to or less than 20 nM. The target sequences were selected for the identity with, or similarity to, promoter sites for bacterial genes.
(§6) Quantitative DNase I footprint titration experiments were carried out as described previously (Dervan, WO 98/50582, 1998) with the following changes. All reactions were carried out in a total volume of 400 μL, with compound stock solution or water added to 15,000 cpm radiolabeled restriction fragment affording final solution conditions of 10 mM Tris HCl, 10 mM KCl, 10 mM MgCl2, 5 mM CaCl2, pH 7.0 and 0.01 nM, 0.1 nM, 1.0 nM, 10.0 nM compound or no compound for reference lanes. The compounds were allowed to equilbrate at 22° C. for 16 h. Footprinting reactions were initiated with addition of 10 μL of a DNase I stock solution (at the appropriate concentration to give ˜50% intact DNA) containing 1 mM DTT and allowed to proceed for 7 min at 22° C. The reactions were stopped, ethanol precipitated, resuspended in loading buffer, heat denatured, and placed on ice as described previously (Dervan WO 98/50582, 1998). The reaction products were separated on a precast 8% polyacrylamide denaturing sequencing Castaway gel with 32 preformed wells from Stratagene in 1×TBE at 2000 V. Gels were dried according to the manufacturer and exposed to a storage phosphor screen (Molecular Dynamics). Quantitation and data analysis were carried out as described in Dervan, WO 98/50582, 1998.

[5] = biological target: target sequence […] (351 bp fragment, Plasmid A); assay: Quantitative DNase I footprint titration; type: binding; settings: AAAAAGTACAAAAA, 351 bp A; 22° C., pH 7.0; read-out: Dissociation Constant Kd
Description: as §2, §3, §4, §5, §6

[6] = biological target: target sequence GACAATTAATCA (352 bp fragment, Plasmid C); assay: Quantitative DNase I footprint titration; type: binding; settings: 352 bp C, 22° C., pH 7.0, read-out: Dissociation Constant Kd
Description: as §2, §3, §4, §5, §6

S. aureus ATCC 43300 = assay: NCCLS broth microdilution MIC; type: cell-based, Staphylococcus aureus; settings: Col. C = S. aureus ATCC 43300 (MRSA)
Description: as §1

[7] = biological target: target sequence AATTAATCAT (352 bp fragment, Plasmid C); assay: Quantitative DNase I footprint titration; type: binding; settings: 352 bp C, 22° C., pH 7.0, read-out: Dissociation Constant Kd
Description: as §2, §3, §4, §5, §6

[8] = system: methicillin resistant Staphylococcus aureus ATCC 33591; assay: Murine neutropenic thigh model; type: in vivo; settings: neutropenic CF1 mice, 50 mg/kg intravenously 2 h post infection, 24 hr after treatment, vehicle 8.03
Description: A S. aureus ATCC 33591 culture was grown to log phase overnight and diluted in phosphate buffered saline (pH 7.2) to an optical density of about 0.1 at 600 nm, giving an approximate concentration of 10^8 cfu/mL. The suspension was diluted 1:100 in phosphate buffered saline (pH 7.2) for a final concentration of 10^6 cfu/mL.
Outbred female CFI mice (approx. 20 gram body weight) were rendered netutropenic by treatment with cyclophosphamide (200 mg/kg body weight, intraperitoneal injection) at 2 and 4 days prior to inoculation. Groups of 5 mice were inoculated with 0.05 mL of the bacteria (approx. 10^6 cfu/mL) into the anterior thigh. Each group was treated intravenously two hours post infection with vehicle (phosphate buffered saline) or test compound. The mice were sacrificed at either 6 or 24 hrs after treatment and thighs were collected aseptically. Each thigh was weighed, placed into sterile saline, and homogenized. The tissue homogenates were diluted appropriately for plating on agar plates. Colony counts were recorded (cfu/gram) and compared to control groups.

SMILES: CC(C)N(CCNC(=O)CCNC(=O)c1cc(NC(=O)c2cc(NC(=O)CCNC(=O)c3cc(NC(=O)c4cc(NC(=O)c5cc(Br)c(Br)s5)cn4C)cn3C)cn2C)cn1C)C(C)C [Compound 2]
Minimum Inhibitory Concentration (MIC) (S. aureus ATCC 27660): ++ (++ = MIC ≦ 1)
Minimum Inhibitory Concentration (MIC) (S. aureus ATCC 33591): − (− = MIC > 2)
Minimum Inhibitory Concentration (MIC) [1]: + (+ = MIC ≦ 2)
Minimum Inhibitory Concentration (MIC) [2]: ++ (++ = MIC ≦ 1)
Minimum Inhibitory Concentration (MIC) [3]: >32 µg/mL
Kd [4]: 10 nM
Kd [5]: 0.2 nM

SMILES: Cn1cc(NC(=O)c2cc(NC(=O)CCNC(=O)c3cc(NC(=O)c4cc(NC(=O)c5cc(Br)c(Br)s5)cn4C)cn3C)cn2C)cc1C(=O)NCCC(=O)NCCN1CCCCC1 [Compound 3]
Minimum Inhibitory Concentration (MIC) (S. aureus ATCC 27660): ++ (++ = MIC ≦ 1)
Minimum Inhibitory Concentration (MIC) (S. aureus ATCC 33591): ++ (++ = MIC ≦ 1)
Minimum Inhibitory Concentration (MIC) [1]: + (+ = MIC ≦ 2)
Minimum Inhibitory Concentration (MIC) [2]: ++ (++ = MIC ≦ 1)
Minimum Inhibitory Concentration (MIC) [3]: >32 µg/mL
Kd [4]: 2 nM
Kd [5]: 0.01 nM

SMILES: CCN(CC)CCCNC(=O)CCNC(=O)c1cc(NC(=O)c2cc(NC(=O)CCNC(=O)c3cc(NC(=O)c4cc(NC(=O)c5cc(Br)c(Br)s5)cn4C)cn3C)cn2C)cn1C [Compound 4]
Minimum Inhibitory Concentration (MIC) (S. aureus ATCC 27660): ++ (++ = MIC ≦ 1)
Minimum Inhibitory Concentration (MIC) (S. aureus ATCC 33591): ++ (++ = MIC ≦ 1)
Minimum Inhibitory Concentration (MIC) [1]: − (− = MIC > 2)
Minimum Inhibitory Concentration (MIC) [2]: ++ (++ = MIC ≦ 1)
Minimum Inhibitory Concentration (MIC) [3]: >32 µg/mL
Kd [4]: 10 nM
Kd [5]: 0.01 nM

SMILES: CN(C)CC(C)(C)CNC(=O)CCNC(=O)c1cc(NC(=O)c2cc(NC(=O)CCNC(=O)c3cc(NC(=O)c4cc(NC(=O)c5cc(Br)c(Br)s5)cn4C)cn3C)cn2C)cn1C [Compound 5]
Minimum Inhibitory Concentration (MIC) (S. aureus ATCC 27660): ++ (++ = MIC ≦ 1)
Minimum Inhibitory Concentration (MIC) (S. aureus ATCC 33591): ++ (++ = MIC ≦ 1)
Minimum Inhibitory Concentration (MIC) [1]: − (− = MIC > 2)
Minimum Inhibitory Concentration (MIC) [2]: ++ (++ = MIC ≦ 1)
Minimum Inhibitory Concentration (MIC) [3]: >32 µg/mL
Kd [6]: 2 nM
Kd [5]: 0.01 nM

SMILES: Cn1cc(NC(=O)c2cc(NC(=O)c3cc(NC(=O)c4sc5ccccc5c4Cl)cn3C)cn2C)cc1C(=O)NCCN1CCOCC1 [Compound 8]
Minimum Inhibitory Concentration (MIC) (S. aureus ATCC 27660): ++ (++ = MIC ≦ 1)
Minimum Inhibitory Concentration (MIC) (S. aureus ATCC 33591): ++ (++ = MIC ≦ 1)
Minimum Inhibitory Concentration (MIC) (S. aureus ATCC 43300): ++ (++ = MIC ≦ 1)
Minimum Inhibitory Concentration (MIC) [1]: ++ (++ = MIC ≦ 1)
Minimum Inhibitory Concentration (MIC) [2]: ++ (++ = MIC ≦ 1)
Minimum Inhibitory Concentration (MIC) [3]: >32 µg/mL
Kd [7]: 0.2 nM

Minimum Inhibitory Concentration (MIC) (S. aureus ATCC 27660): + (+ = MIC ≦ 2)
Minimum Inhibitory Concentration (MIC) (S. aureus ATCC 33591): − (− = MIC > 2)
Minimum Inhibitory Concentration (MIC) [1]: + (+ = MIC ≦ 2)
Minimum Inhibitory Concentration (MIC) [2]: ++ (++ = MIC ≦ 1)
Minimum Inhibitory Concentration (MIC) [3]: >32 µg/mL
Kd [6]: ≤ 1 nM
SMILES: Cn1cc(NC(=O)c2cc(NC(=O)c3cc(NC(=O)c4sccc4Cl)cn3C)cn2C)cc1C(=O)NCCN1CCSCC1 [Compound 11]

Minimum Inhibitory Concentration (MIC) (S. aureus ATCC 27660): ++ (++ = MIC ≦ 1)
Minimum Inhibitory Concentration (MIC) (S. aureus ATCC 33591): − (− = MIC > 2)
Minimum Inhibitory Concentration (MIC) [1]: ++ (++ = MIC ≦ 1)
Minimum Inhibitory Concentration (MIC) [2]: ++ (++ = MIC ≦ 1)
Minimum Inhibitory Concentration (MIC) [3]: >32 µg/mL
Kd [6]: ≤ 0.1 nM
SMILES: Cn1cc(NC(=O)c2sccc2Cl)cc1C(=O)Nc1cc(-c2nc3ccc(C(=O)NCCN4CCOCC4)cc3[nH]2)n(C)c1 [Compound 12]
Colony Count [8]: 6.96 log cfu/gram

SMILES: Cn1cc(NC(=O)c2cc(NC(=O)c3cc(NC(=O)c4ccc(F)cc4F)cn3C)cn2C)cc1C(=O)NCCN1CCCCCC1 [Compound 15]
Minimum Inhibitory Concentration (MIC) (S. aureus ATCC 27660): ++ (++ = MIC ≦ 1)
Minimum Inhibitory Concentration (MIC) (S. aureus ATCC 33591): − (− = MIC > 2)
Minimum Inhibitory Concentration (MIC) [1]: + (+ = MIC ≦ 2)
Minimum Inhibitory Concentration (MIC) [2]: ++ (++ = MIC ≦ 1)
Minimum Inhibitory Concentration (MIC) [3]: 8 µg/mL
Kd [7]: 2 nM

SMILES: Cn1cc(NC(=O)c2sc3ccccc3c2Cl)cc1C(=O)Nc1cc(C(=O)NCCN2CCCCC2)n(CCN2CCOCC2)c1 [Compound 16]
Minimum Inhibitory Concentration (MIC) (S. aureus ATCC 27660): ++ (++ = MIC ≦ 1)
Minimum Inhibitory Concentration (MIC) (S. aureus ATCC 33591): ++ (++ = MIC ≦ 1)
Minimum Inhibitory Concentration (MIC) [1]: ++ (++ = MIC ≦ 1)
Minimum Inhibitory Concentration (MIC) [2]: ++ (++ = MIC ≦ 1)
Minimum Inhibitory Concentration (MIC) [3]: 4 µg/mL
Kd [7]: 10 nM

SMILES: Cn1cc(NC(=O)c2sc3ccccc3c2Cl)cc1-c1nc2ccc(C(=O)NCCN3CCCCC3)cc2[nH]1 [Compound 18]
Minimum Inhibitory Concentration (MIC) (S. aureus ATCC 27660): ++ (++ = MIC ≦ 1)
Minimum Inhibitory Concentration (MIC) (S. aureus ATCC 33591): ++ (++ = MIC ≦ 1)
Minimum Inhibitory Concentration (MIC) [1]: ++ (++ = MIC ≦ 1)
Minimum Inhibitory Concentration (MIC) [2]: ++ (++ = MIC ≦ 1)
Minimum Inhibitory Concentration (MIC) [3]: >32 µg/mL
Kd [7]: 5 nM
